Key:
[1] = target: T1, human JAK1 (Homo sapiens, UniProt P23458); assay: JAK1 kinase enzyme assay, TRF detection; assay type: biochemical; conditions: relative to JAK2
T1 construct: host or cells: baculovirus expression
Experimental: (§1) The kinase activity of baculovirus-expressed human JAK kinases (JAK1, JAK2, JAK3 or TYK2) was measured using the time-resolved fluorescence (TRF) detection system as described elsewhere [17]. Each 96-well Costar high binding plate (Corning, Corning, N.Y.) was coated with 100 μl/well of 10 μg/ml neutravidin (Pierce Biotechnology, Rockford, Ill.) in TBS at 37° C. for 2 h, followed by 100 μl/well of 1 μg/ml 15-mer peptide substrate (biotinyl-amino-hexanoyl-[sequence]-amide, Infinity Biotech Research and Resource, Aston, Pa.) at 37° C. for 1 h. The kinase assay mixture (total volume=100 μl/well) consisting of 20 mM HEPES (pH 7.2), ATP (Km level for each kinase), 1 mM MnCl2, 0.1% BSA, and test Compound (diluted in DMSO; 2.5% DMSO final in assay) was added to the assay plate. The concentrations of ATP used were as follows: 0.2 μM ATP for JAK1, JAK2 and TYK2; 0.1 μM ATP for JAK3. Enzyme was added and the reaction was allowed to proceed for 20 min at RT. […] Plates were agitated for 10 min and the fluorescence of the resulting solution measured using the PerkinElmer EnVision® 2102 or 2104 multi-label plate reader. IC50 values were determined using the 4-parameter logistic model in XLFit® 4 (IDBS, Ltd., Guildford, UK).

[2] = test system: panel of 402 kinases; assay: Kinome binding assays, selectivity panel; conditions: test concentration 1 μM
[3] = target: Src kinase (Homo sapiens, UniProt P12931); assay: Kinase profiling panel, Src; assay type: binding; conditions: 1 μM
Experimental: The ability of Compound A to inhibit other members of the kinome was also assessed using binding assays for a panel of 402 kinases [25].

[4] = test system: JAK2 in HEL92 cells (phosphorylation of STAT5); assay: Inhibition of STAT5 phosphorylation in HEL92 cells (western blot); assay type: cell-based; conditions: 1 hour, serum-free media
[5] = test system: JAK2 (STAT5/pSTAT5 in HEL92 tumor extracts); assay: In vivo pharmacodynamic assay, HEL92 tumor extracts; design: species or system mice; conditions: 55 mg/kg p.o., 2 hours
Source text: Levels of STAT5 and pSTAT5 were quantitated via western blot. Each lane represents an individual sample.

[6] = test system: JAK2 in irf-bla TF-1 cells; assay: GeneBLAzer reporter assay in irf-bla TF-1 cells; assay type: cell-based
Experimental: The effect of Compound A in a cellular system was measured using irf-bla TF-1 cells (JAK2) and Ba/F3 (JAK3) cells. These cells were not tested for the presence of JAK1 and TYK2. IC50 values are reported as the average±standard deviation of at least 4 independent determinations.

[7] = test system: CB11-specific, IFNγ secreting T cells; assay: CIA model, ex vivo IFNγ T-cell Elispot of splenocytes; assay type: in vivo, female DBA/1 mice; conditions: four weeks
Source text: FIG. 4D: Depicts IFNγ Elispot® results from stimulated splenocytes from treated mice challenged with collagen type II fragment (CB11), OVA or media alone. The Elispot images shown in the figure are representative of each treatment group and the bar graph represents data using four mice from each treatment group. Spots were counted using a C.T.L. Immunospot Elispot scanner and spot counting software.
For CIA experiments, Millipore nitrocellulose IP filter plates (Millipore, Billerica, Mass.) were coated with either anti-mouse IFNγ (AN18, MabTech, Mariemont, Ohio) or anti-mouse IL-4 (11B11, eBioscience, San Diego, Calif.) at 7 μg/ml or 2 μg/ml, respectively, in sterile PBS at 60 μl per well and incubated for 3 hours at RT or overnight at 4° C. Coated wells were washed with PBS plus 0.1% Tween-20 and patted semi-dry before blocking using complete media for at least 1 hour before use. Purified mouse collagen type II (Chrondrex, Redmond, Wash.), type I (Chrondrex, Redmond, Wash.) or third party control chicken ovalbumin (OVA) (Sigma, St. Louis, Mo.) were used to challenge 1 million processed splenocytes per well at 10 μg/ml of total antigen concentration. Media alone were used as background controls, OVA as third party controls and PMA plus Ionomycin as positive controls for IFNγ and IL-4 release by Th1 and Th2 cells, respectively.

[8] = CIA model, body mass; assay type: in vivo, female DBA/1 mice
Experimental: FIGS. 9A and 9B: Depict the effect of treatment on body mass and serum anti-CII autoantibody concentration in a CIA model.
Female DBA/1 mice were injected with purified collagen type II in CFA i.d. (intradermal) then boosted with collagen type II in IFA s.c. (subcutaneous) on day 21 followed by a day 28 LPS injection i.p. (intraperitoneal) to induce arthritis (CIA). Mice that scored a ‘1’ or better for each paw were considered arthritic and entered into the study, treatments started after several days of full arthritis. Compound A was provided orally, b.i.d., for each dose tested; Dex was provided i.p. at 1.5 mg/kg three times a week; vehicle (PEG400+1% DMSO) was provided orally, b.i.d.

[9] = test system: carrageenan-induced inflammation; assay: Air pouch mouse model of carrageenan-induced inflammation; assay type: in vivo, Balb/c mice; conditions: 10, 30 and 55 mg/kg into the pouch, 24 hours, p<0.05 vs vehicle
Experimental: Balb/c mice were induced for air pouch initiation (see materials and methods) using sterile air. Carrageenan at 1% in saline was injected directly into the pouch followed by treatment with Compound A or dexamethasone (Dex) 1 hour later. One-hundred microliters of air pouch fluid was removed 24 hours post-administration. FIG. 5A: Depicts total cell count using 7-AAD exclusion via flow cytometeric analysis and BD TruCount beads. FIG. 5B: Depicts fluid supernatant IL-6 concentration as determined by Luminex® cytokine analysis. FIG. 5C: Depicts hemoglobin content as assessed by the Drabkin's assay. All data shown in the figures represent mean±SEM, and statistics were performed using 2-way ANOVA analysis, *p<0.05, N=5 mice per group tested. To test the impact of Compound A inhibition of JAK2 at the cellular level, the mouse air pouch model (APM) was utilized. Air-filled subcutaneous pouches were maintained under sterile conditions and injected with 1% carrageenan simultaneously with Compound A at 10, 30 and 55 mg/kg. Saline alone (vehicle) or dexamethasone at 1.5 mg/kg were used as controls. […] Briefly, Balb/c mice were injected s.c. with 4 ml of sterile air on day −5, baseline measurements were recorded and mice were randomized into groups. Mice entered the study upon air pouch maintenance by day −3 when 2 ml of sterile air is injected for air pouch maintenance. On day 0 mice were given a 1% carrageenan (Sigma, St. Louis, Mo.) injection suspended in saline directly into the air pouch. This induces a rapid inflammatory influx of primarily neutrophils and macrophage. The test compounds were provided in saline at mg/kg concentrations in 100 μl total volume and introduced directly into the air pouch simultaneously with the carrageenan injection, (1% carrageenan in saline). […] Cellular exudates were centrifuged, supernatants were processed for Luminex cytokine analysis, and the cell pellets were counted for total live and dead cells. […] Hemoglobin content was determined using the Drabkin's assay (Sigma, St. Louis, Mo.).

[10] = target: human JAK2 (Homo sapiens, UniProt O60674); conditions: read-out: IC50, JAK2 kinase, isolated human enzyme; average±standard deviation of at least 4 determinations; 0.2 μM ATP
Sequence of human JAK2 (O60674 whole entry): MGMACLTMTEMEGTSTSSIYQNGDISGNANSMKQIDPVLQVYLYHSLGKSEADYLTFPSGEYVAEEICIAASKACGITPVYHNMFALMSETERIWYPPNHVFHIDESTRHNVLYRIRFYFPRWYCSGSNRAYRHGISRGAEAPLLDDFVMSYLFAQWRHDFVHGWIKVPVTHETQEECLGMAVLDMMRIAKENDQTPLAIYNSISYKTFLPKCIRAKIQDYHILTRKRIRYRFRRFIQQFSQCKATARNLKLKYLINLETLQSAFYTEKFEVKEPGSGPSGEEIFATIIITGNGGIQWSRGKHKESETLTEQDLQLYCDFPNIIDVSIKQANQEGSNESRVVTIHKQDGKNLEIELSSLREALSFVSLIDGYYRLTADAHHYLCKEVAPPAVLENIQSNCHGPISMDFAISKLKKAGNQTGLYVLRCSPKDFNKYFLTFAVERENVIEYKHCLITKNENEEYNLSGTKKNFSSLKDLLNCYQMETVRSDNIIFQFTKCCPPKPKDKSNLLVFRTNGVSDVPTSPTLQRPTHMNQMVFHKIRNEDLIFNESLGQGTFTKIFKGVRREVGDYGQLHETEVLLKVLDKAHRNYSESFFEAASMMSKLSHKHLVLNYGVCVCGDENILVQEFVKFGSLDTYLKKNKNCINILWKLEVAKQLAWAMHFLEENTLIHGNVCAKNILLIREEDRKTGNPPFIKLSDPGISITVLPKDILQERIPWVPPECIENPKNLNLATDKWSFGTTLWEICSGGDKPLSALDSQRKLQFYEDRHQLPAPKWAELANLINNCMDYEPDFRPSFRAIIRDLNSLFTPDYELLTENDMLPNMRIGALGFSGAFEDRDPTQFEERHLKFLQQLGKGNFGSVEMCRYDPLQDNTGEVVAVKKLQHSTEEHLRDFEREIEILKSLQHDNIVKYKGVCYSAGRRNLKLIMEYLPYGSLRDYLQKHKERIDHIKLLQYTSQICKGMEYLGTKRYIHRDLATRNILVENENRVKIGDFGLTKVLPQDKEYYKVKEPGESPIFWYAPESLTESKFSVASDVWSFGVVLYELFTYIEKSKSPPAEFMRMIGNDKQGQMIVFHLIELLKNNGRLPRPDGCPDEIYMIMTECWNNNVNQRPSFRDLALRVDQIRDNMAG
Experimental: IC50 values are reported as the average±standard deviation of at least 4 independent determinations.
as §1

T1 sequence (P23458 whole entry): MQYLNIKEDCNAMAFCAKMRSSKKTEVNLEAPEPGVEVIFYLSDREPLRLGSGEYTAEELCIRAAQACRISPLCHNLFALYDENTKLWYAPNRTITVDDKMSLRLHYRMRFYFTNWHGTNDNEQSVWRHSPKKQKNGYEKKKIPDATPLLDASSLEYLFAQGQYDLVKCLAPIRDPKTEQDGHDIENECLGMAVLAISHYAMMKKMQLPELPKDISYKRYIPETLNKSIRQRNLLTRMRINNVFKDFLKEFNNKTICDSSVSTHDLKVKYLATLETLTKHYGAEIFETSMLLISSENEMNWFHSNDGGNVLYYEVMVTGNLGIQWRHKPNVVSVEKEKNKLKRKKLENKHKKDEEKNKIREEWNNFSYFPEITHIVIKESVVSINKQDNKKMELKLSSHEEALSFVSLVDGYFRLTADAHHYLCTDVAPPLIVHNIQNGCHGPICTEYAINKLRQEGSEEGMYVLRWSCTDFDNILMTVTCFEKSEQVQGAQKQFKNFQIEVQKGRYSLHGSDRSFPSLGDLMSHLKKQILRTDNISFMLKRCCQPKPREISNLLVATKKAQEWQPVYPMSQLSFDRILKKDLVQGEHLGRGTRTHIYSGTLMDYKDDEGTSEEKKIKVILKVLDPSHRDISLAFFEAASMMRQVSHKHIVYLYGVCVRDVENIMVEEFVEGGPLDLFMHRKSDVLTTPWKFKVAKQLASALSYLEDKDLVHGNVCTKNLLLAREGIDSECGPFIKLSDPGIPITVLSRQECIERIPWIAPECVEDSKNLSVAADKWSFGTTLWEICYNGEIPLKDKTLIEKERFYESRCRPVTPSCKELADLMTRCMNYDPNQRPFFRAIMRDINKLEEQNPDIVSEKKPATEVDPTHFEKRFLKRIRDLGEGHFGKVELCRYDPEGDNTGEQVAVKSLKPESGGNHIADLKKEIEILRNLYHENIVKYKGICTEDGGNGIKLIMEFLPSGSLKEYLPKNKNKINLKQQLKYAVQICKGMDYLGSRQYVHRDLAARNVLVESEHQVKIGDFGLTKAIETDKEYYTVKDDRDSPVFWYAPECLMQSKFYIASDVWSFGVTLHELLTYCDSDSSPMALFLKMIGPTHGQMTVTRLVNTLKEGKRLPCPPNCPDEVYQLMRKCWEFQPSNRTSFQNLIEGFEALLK
Sequence of Src kinase (P12931 whole entry): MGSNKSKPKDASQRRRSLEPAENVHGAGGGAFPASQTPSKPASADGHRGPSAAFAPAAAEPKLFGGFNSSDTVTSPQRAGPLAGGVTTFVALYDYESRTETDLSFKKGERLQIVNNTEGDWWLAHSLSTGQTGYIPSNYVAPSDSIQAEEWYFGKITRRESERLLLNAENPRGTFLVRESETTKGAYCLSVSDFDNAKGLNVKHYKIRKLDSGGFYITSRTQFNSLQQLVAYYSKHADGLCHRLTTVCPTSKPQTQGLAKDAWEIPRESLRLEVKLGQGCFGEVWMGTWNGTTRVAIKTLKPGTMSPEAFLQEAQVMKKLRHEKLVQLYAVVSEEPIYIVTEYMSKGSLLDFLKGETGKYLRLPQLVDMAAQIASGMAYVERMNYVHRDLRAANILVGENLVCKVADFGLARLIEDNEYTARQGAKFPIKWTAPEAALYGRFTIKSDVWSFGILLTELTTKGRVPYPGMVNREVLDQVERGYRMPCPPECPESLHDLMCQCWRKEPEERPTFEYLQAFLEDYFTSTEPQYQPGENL

With `CN1CCN(c2cccc(Nc3nc4c(-c5ccc(S(C)(=O)=O)cc5)cccn4n3)c2)CC1` [Compound A, [8-(4-Methanesulfonyl-phenyl)-[1,2,4]triazolo[1,5-a]pyridin-2-yl]-[3-(4-methyl-piperazin-1-yl)-phenyl]-amine] the “selectivity versus JAK1” value [1] was > 40 fold, the “share of the panel inhibited by >90%” value ([2]; 402 kinases) was 9% and the “share of the panel inhibited by >99%” value ([2]; 402 kinases) was 1%. The “selectivity score S(90)402” value ([2]; score of Karaman et al) was 0.09, the “selectivity score S(99)402” value ([2]; score of Karaman et al) was 0.01 and the “activity against Src in profiling panel” value [3] was “lacked activity”. For the same compound, the “inhibition of JAK2, phosphorylation of STAT5” value [4] was “shown to inhibit JAK2 in HEL92 cells”, the “inhibition of JAK2 in vivo (pSTAT5/STAT5)” value [5] was “inhibit JAK2 in vivo” and the “inhibition of JAK2, reporter assay” value [6] was “inhibits JAK2 in irf-bla TF-1 cells”. The “frequency of CB11-specific, IFNγ secreting T cells” value ([7]; 55 mg/kg b.i.d. p.o.) was “significant reduction in the frequency of CB11-specific, IFNγ secreting T cells”, the “frequency of CB11-specific, IFNγ secreting T cells” value ([7]; 100 mg/kg b.i.d. p.o.) was “significant reduction in the frequency of CB11-specific, IFNγ secreting T cells” and the body mass [8] was “did not significantly change”. For the same compound, the “air pouch fluid IL-6 expression” value [9] was “inhibit the expression of IL-6 to below that of Dex”, the “angiogenesis, total hemoglobin content (Drabkin's assay)” value [9] was “angiogenesis was impacted” and the “cellular accumulation in the air pouch (total cell count)” value [9] was “significantly decreased cellular accumulation in the air pouch”. For the same compound, the IC50 [10] was 1.8 ± 0.6 nM.

— US9034876B2, “Treatment of chronic inflammation with a 1,2,4-triazolo [1,5a] pyridine derivative” (Cephalon, Inc., priority 2010, dated 2015)
